Laboratory results as given in ChEMBL document CHEMBL1201862, “PubChem BioAssay data set” (2004).
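Results reflect a 48-hour exposure of cells in 96-well plates to compound at five concentrations. At the GI50, growth is halved.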 Active and inactive are the calls of the source. Cut-off read from the data, not from the text of the source: active = GI50 up to about 1.1 µM and inactive = higher.

Experiments:
Assay in all cases: NCI-60 cell line screen, 48 h
[1] = tested on: SK-MEL-5
[2] = tested on: CAKI-1
[3] = tested on: KM12
[4] = tested on: OVCAR-3
[5] = tested on: MOLT-4
[6] = tested on: HL-60
[7] = tested on: HOP-62
[8] = tested on: NCI-H460
[9] = tested on: M19-MEL
[10] = tested on: SNB-19
[11] = tested on: SK-MEL-28
[12] = tested on: TK-10
[13] = tested on: UO-31
[14] = tested on: HCC 2998
[15] = tested on: LOX IMVI
[16] = tested on: SF-268
[17] = tested on: RXF 393
[18] = tested on: HCT-15
[19] = tested on: HOP-18
[20] = tested on: Malme-3M
[21] = tested on: HOP-92
[22] = tested on: SK-OV-3
[23] = tested on: DMS-114
[24] = tested on: SN12C
[25] = tested on: RPMI-8226
[26] = tested on: NCI-H226
[27] = tested on: HT-29
[28] = tested on: SK-MEL-2
[29] = tested on: LXFL 529
[30] = tested on: XF498
[31] = tested on: A549
[32] = tested on: SW-620
[33] = tested on: EKVX
[34] = tested on: UACC-257
[35] = tested on: CCRF-CEM
[36] = tested on: HCT-116
[37] = tested on: NCI-H23
[38] = tested on: NCI-H522
[39] = tested on: KM-20L2
[40] = tested on: OVCAR-5
[41] = tested on: DLD-1
[42] = tested on: ACHN
[43] = tested on: UACC-62
[44] = tested on: M14
[45] = tested on: A498
[46] = tested on: IGROV-1
[47] = tested on: SNB-78
[48] = tested on: RXF 631
[49] = tested on: 786-0
[50] = tested on: SF-295
[51] = tested on: SR
[52] = tested on: DMS-273
[53] = tested on: K562
[54] = tested on: COLO 205
[55] = tested on: U-251
[56] = tested on: OVCAR-8
[57] = tested on: SNB-75
[58] = tested on: OVCAR-4
[59] = tested on: SF-539

Measured: GI50

CCOC(=O)c1c[nH]c2c(ccc3nn(C)nc32)c1=O
41 µM: [18]
inactive: [1] > 100 µM | [2] > 100 µM | [3] > 100 µM | [4] > 100 µM | [5] > 100 µM | [6] 57.3 µM | [7] > 100 µM | [8] 96.4 µM | [9] > 100 µM | [10] > 100 µM | [11] > 100 µM | [12] > 100 µM | [13] > 100 µM | [14] > 100 µM | [15] 10 µM | [16] > 100 µM | [17] 30.4 µM | [19] > 100 µM | [20] > 100 µM | [21] > 100 µM | [22] > 100 µM | [23] 49.8 µM | [24] > 100 µM | [25] 25.6 µM | [26] > 100 µM | [27] > 100 µM | [28] 19.4 µM | [29] > 100 µM | [30] > 100 µM | [31] 34 µM | [32] 20.1 µM | [33] > 100 µM | [34] > 100 µM | [35] 34 µM | [36] 24.9 µM | [37] > 100 µM | [38] > 100 µM | [39] > 100 µM | [40] > 100 µM | [41] 50.4 µM | [42] > 100 µM | [43] > 100 µM | [44] > 100 µM | [45] > 100 µM | [46] > 100 µM | [47] 15.5 µM | [48] > 100 µM | [49] > 100 µM | [50] > 100 µM | [51] 84.1 µM | [52] 19.9 µM | [53] 49.7 µM | [54] 38.3 µM | [55] 25.8 µM | [56] > 100 µM | [57] > 100 µM

Clc1cccc2c1OCC1C(c3ccccc3)=NN(c3ccccc3)C21 (configuration not stated)
inactive: [1] 23.8 µM | [3] 87.1 µM | [4] > 100 µM | [5] 35.2 µM | [6] 31.8 µM | [7] > 100 µM | [8] 59.4 µM | [9] > 100 µM | [10] 96.4 µM | [11] > 100 µM | [12] > 100 µM | [13] 60.8 µM | [14] > 100 µM | [15] 39.7 µM | [16] 63.2 µM | [17] > 100 µM | [19] 24 µM | [20] > 100 µM | [21] 64.4 µM | [22] > 100 µM | [23] 47.6 µM | [25] 22.8 µM | [27] 83.9 µM | [28] > 100 µM | [29] 67.1 µM | [30] > 100 µM | [31] 66.2 µM | [32] > 100 µM | [33] 40.1 µM | [34] 67.3 µM | [35] 32.2 µM | [36] 12.9 µM | [37] > 100 µM | [38] 45.4 µM | [39] > 100 µM | [40] > 100 µM | [41] > 100 µM | [42] 55.5 µM | [45] > 100 µM | [46] > 100 µM | [47] 72.9 µM | [48] > 100 µM | [49] 55.6 µM | [50] 72.1 µM | [52] 45.8 µM | [53] 28.9 µM | [54] > 100 µM | [55] 38.9 µM | [56] 81.8 µM | [57] > 100 µM

COc1ccc(/N=N/c2c(-c3ccccc3)nn(C(=O)CC(=O)Nc3ccc(OC)cc3)c2-c2ccccc2)cc1
> 100 µM: [18]
inactive: [58] > 100 µM | [1] > 100 µM | [2] > 100 µM | [3] > 100 µM | [4] > 100 µM | [5] 31.8 µM | [6] > 100 µM | [7] 23.4 µM | [8] > 100 µM | [9] > 100 µM | [10] 29.9 µM | [11] > 100 µM | [12] 52.7 µM | [13] > 100 µM | [14] > 100 µM | [15] > 100 µM | [16] 48.5 µM | [19] 84.3 µM | [20] > 100 µM | [21] 16 µM | [22] 40.6 µM | [23] 60 µM | [24] > 100 µM | [25] > 100 µM | [59] 18.6 µM | [26] > 100 µM | [27] > 100 µM | [28] 88.3 µM | [29] 60.5 µM | [30] 27 µM | [31] > 100 µM | [32] > 100 µM | [33] 71.1 µM | [34] > 100 µM | [35] 23.7 µM | [36] 60 µM | [37] 33 µM | [38] 61.5 µM | [40] > 100 µM | [41] > 100 µM | [42] 97.3 µM | [43] 42.1 µM | [45] 33.2 µM | [46] 39.9 µM | [47] 34.6 µM | [48] 59.3 µM | [49] 48.6 µM | [50] 21.1 µM | [52] > 100 µM | [53] 27 µM | [54] > 100 µM | [55] 58.3 µM | [56] > 100 µM | [57] 16 µM
